Where two headings read alike, the source gives them in different places.
Biological target: HIV-1 integrase (Human immunodeficiency virus type 1 group M subtype B, UniProt P04585)
Test: HIV-1 integrase inhibition assay (radiolabeled duplex substrate corresponding to the U5 end of the HIV LTR)
Assay type: biochemical
Procedure: For the purpose of Table 1 to 4, the HIV-1 integrase inhibition assay was carried out following a known procedure (Burke, Jr. T. R. et al., J. Med. Chem. 38, 4171-4178 (1995)). A suitable radiolabeled duplex substrate corresponding to the U5 end of the HIV LTR was used.
For the purposes of Table 1 to 4 the HIV-1 integrase inhibition assay was based on a known procedure (Hazuda, D. J. et al., Nucleic Acids Res. 22 1121-1122 (1994)).

[1] = Table 4, compounds of formula I′, read-out: IC50

Molecule | IC50 [µM] | also measured
CC(C)(C)OC(=O)CC[C@H](NC(=O)c1cc2ccccc2n1Cc1ccc(F)cc1)C(=O)NCCc1cccs1 [Example 102, N-[Nα-(N′-(4-Fluorobenzyl)indole-2-carbonyl)-Oδ-tert-butyl-L-glutamyl]-2-(2′-thiophenyl)ethylamine] | > 10 | –
O=C(O)CC[C@H](NC(=O)c1cccn1Cc1ccc(F)cc1)C(=O)NCCc1cccs1 [Example 103, N-[Nα-(N′-(4-Fluorobenzyl)pyrrole-2-carbonyl)-L-glutamyl]-2-(2′-thiophenyl)ethylamine] | > 10 | –
O=C(O)CC[C@H](NC(=O)c1cc2ccccc2n1Cc1ccc(F)cc1)C(=O)NCCc1cccs1 [Example 104, N-[Nα-(N′-(4-Fluorobenzyl)indole-2-carbonyl)-L-glutamyl]-2-(2′-thiophenyl)ethylamine] | > 10 | –
CC(C)(C)OC(=O)CC[C@H](NC(=O)c1cc(O)c2cccc(O)c2n1)C(=O)NCCc1cccs1 [Example 105, N-[Nα-(4,8-Dihydroxyquinoline-2-carbonyl)-Oδ-tert-butyl-L-glutamyl]-2-(2′-thiophenyl)ethylamine] | > 10 | –
O=C(O)CC[C@H](NC(=O)c1cc(O)c2cccc(O)c2n1)C(=O)NCCc1cccs1 [Example 106, N-[Nα-(4,8-Dihydroxyquinoline-2-carbonyl)-L-glutamyl]-2-(2′-thiophenyl)ethylamine] | > 10 | –
CC(C)(C)OC(=O)CC[C@H](NC(=O)c1cc(F)ccc1O)C(=O)NCCc1cccs1 [Example 107, N-[Nα-(5-Fluoro-2-hydroxybenzoyl)-Oδ-tert-butyl-L-glutamyl]-2-(2′-thiophenyl)ethylamine] | > 10 | –
O=C(O)CC[C@H](NC(=O)c1cc(F)ccc1O)C(=O)NCCc1cccs1 [Example 108, N-[Nα-(5-Fluoro-2-hydroxybenzoyl)-L-glutamyl]-2-(2′-thiophenyl)ethylamine] | > 10 | –
COc1ccc(NC(=O)[C@H](CCC(=O)NC(c2ccccc2)(c2ccccc2)c2ccccc2)NC(=O)c2cc3ccccc3n2Cc2ccc(F)cc2)cc1O [Example 109, N-[Nα-(N′-(4-Fluorobenzyl)indole-2-carbonyl)-Nδ-trityl-L-glutaminyl]-3-hydroxy-4-methoxyaniline] | – | IC50 [1]: 5.3 µM
COc1ccc(NC(=O)[C@H](CCC(=O)NC(c2ccccc2)(c2ccccc2)c2ccccc2)NC(=O)c2ccc(OCc3ccc(F)cc3)c(OCc3ccc(F)cc3)c2)cc1O [Example 111, N-[Nα-(3,4-di-(4-Fluorobenzyloxy)benzoyl)-Nδ-trityl-L-glutaminyl]-3-hydroxy-4-methoxyaniline] | 6.1 | –
COc1ccc(NC(=O)[C@H](CCC(=O)NC(c2ccccc2)(c2ccccc2)c2ccccc2)NC(=O)/C=C/c2ccc(OCc3ccc(F)cc3)c(OCc3ccc(F)cc3)c2)cc1O [Example 112, N-[Nα-(3,4-di-(4-Fluorobenzyloxy)caffeoyl)-Nδ-trityl-L-glutaminyl]-3-hydroxy-4-methoxyaniline] | 2 | –
COc1ccc(NC(=O)[C@H](CCC(=O)NC(c2ccccc2)(c2ccccc2)c2ccccc2)NC(=O)c2cc3cc(F)ccc3[nH]2)cc1O [Example 113, N-[Nα-(5-Fluoroindole-2-carbonyl)-Nδ-trityl-L-glutaminyl]-3-hydroxy-4-methoxyaniline] | 6.5 | –
N-[Nα-(N′-(4-Fluorobenzyl)indole-2-carbonyl)-Oδ-tert-butyl-L-glutamyl]benzylamine [Example 89] | – | IC50 [1]: > 10 µM
Nα,Nε-di-(3,5-Dihydroxynaphthyl-2-carbonyl)-L-lysine [Example 65] | – | IC50 (Table 2, compounds of formula III′, read-out: IC50): > 5 µM

Source: patent US6528655B1, “Aromatic derivatives with HIV integrase inhibitory properties” (Pharmacor, Inc., priority 2000, dated 2003)
